1 compound from patent publication US20120316203A1, “Compositions and Methods for Inhibition of Cancers” (THE OHIO STATE UNIVERSITY RESEARCH FOUNDATION, priority 2009, published 2012) can be followed below.

In this experiment the test system is USP2a, ubiquitinated FAS and FAK in A2780 and SKOV3 cells. Briefly: Ubiquitination of FAS/FAK and USP2a level. The format is cell-based, human. As for the experimental part:
FIG. 15: HO-3867 downregulates FAS and FAK levels via proteasome pathways. To catch any ubiquitinated proteins in the cell lysates, agarose beads coated with domains having affinity to ubiquitin were incubated in the lysates at 4° C. for 2 hours. After washing the beads, the ubiquitinated proteins were subjected to immunoblot for FAS and FAK and blotted by the ubiquitin antibody. A predominant ubiquitination of FAS and FAK is seen in the HO-3867-treated A2780 and SKOV3 cells under proteasomal inhibition using MG 132 (50 μM).
The intracellular amount of rapid-turnover proteins, such as FAS and FAK, is tightly regulated by the ubiquitin-dependent proteolytic pathway. The fast and significant decrease in the FAS and FAK expressions observed in the HO-3867-treated cells prompted us to check any involvement of ubiquitin-dependent degradation mechanism.

Turning to `CC1(C)C=C(CN2C/C(=C\c3ccc(F)cc3)C(=O)/C(=C/c3ccc(F)cc3)C2)C(C)(C)N1O` [HO-3867, 1-[(1-oxyl-2,2,5,5-tetramethyl-2,5-dihydro-1H-pyrrol-3-yl)methyl]-(3E,5E)-3,5-bis(4-fluorobenzylidene)piperidin-4-one], the USP2a level entry is reported as “clearly downregulated”. Also, the “polyubiquitination on FAS and FAK” value (co-incubation with MG-132) was “enhanced polyubiquitination”.
